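How tested: cells in 96-well plates exposed to compound for 48 hours at five concentrations. Abbreviation: GI50, concentration required for 50% inhibition of growth. At the TGI there is no net growth.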

Among the test systems are COLO 205 colon; SK-MEL-28 melanoma; SNB-75 CNS; SF-295 CNS; SF-539 CNS; SK-MEL-2 melanoma; U251 CNS; MOLT-4 leukemia; UACC-62 melanoma; A549 NSCLC.
Assay in all cases: NCI tumour cell line growth inhibition, 48 h

As to `O=C1Cc2cc(C(=O)NC3C[C@H]4CC[C@@H](C3)N4S(=O)(=O)CC3CCN(CCCC(F)(F)F)CC3)c(Cl)cc2N1` (stereo partly drawn), the GI50 in the experiment on COLO 205 colon was 31.2 µM; with SK-MEL-28 melanoma it was > 100 µM; in the experiment on SNB-75 CNS, > 100 µM; in the experiment on SF-295 CNS, > 100 µM; in the experiment with SF-539 CNS it was > 100 µM; in the experiment on SK-MEL-2 melanoma, > 100 µM. Moreover, the GI50 in the experiment with U251 CNS, in the experiment with MOLT-4 leukemia, in the experiment on UACC-62 melanoma and in the experiment with A549 NSCLC was > 100 µM each time. Moreover, the TGI in the experiment on COLO 205 colon, with SK-MEL-28 melanoma, with SNB-75 CNS, in the experiment with SF-295 CNS, in the experiment with SF-539 CNS and in the experiment on SK-MEL-2 melanoma was > 100 µM in each case. The TGI with U251 CNS, in the experiment on MOLT-4 leukemia, with UACC-62 melanoma and in the experiment with A549 NSCLC was > 100 µM throughout.

`CN1c2ccccc2N(C(=O)c2ccccc2)C(CC(=O)O)c2cccn21` (stereo not drawn): the TGI in the experiment on COLO 205 colon, with SK-MEL-28 melanoma, with SNB-75 CNS, in the experiment with SF-295 CNS, with SF-539 CNS and with SK-MEL-2 melanoma was > 100 µM each time. In addition, the TGI in the experiment with U251 CNS, with MOLT-4 leukemia, with UACC-62 melanoma and with A549 NSCLC was > 100 µM throughout.

As to `COc1cc2cc(Oc3ccc(NC(=O)Nc4ccc(Cl)c(Cl)c4)cc3)c(C)nc2cc1OC`, the GI50 in the experiment on COLO 205 colon is 2.75 µM; in the experiment on SK-MEL-28 melanoma it was 3.77 µM; in the experiment on SNB-75 CNS it was 2.33 µM; in the experiment on SF-295 CNS, 1.96 µM; in the experiment with SF-539 CNS, 5.18 µM; in the experiment on SK-MEL-2 melanoma it was 3 µM. The GI50 with U251 CNS is 2.19 µM; in the experiment with MOLT-4 leukemia it was 3.02 µM; with UACC-62 melanoma it was 3.33 µM; with A549 NSCLC, 1.64 µM. Also, the TGI came to 6.5 µM in the experiment with COLO 205 colon; 14.7 µM with SK-MEL-28 melanoma; 8.28 µM in the experiment on SNB-75 CNS; 6.08 µM with SF-295 CNS; 22.3 µM with SF-539 CNS; 6.54 µM with SK-MEL-2 melanoma. Moreover, the TGI in the experiment with U251 CNS is 7.26 µM; with MOLT-4 leukemia it was 22.8 µM; with UACC-62 melanoma, 19.2 µM; in the experiment with A549 NSCLC it was 7.61 µM.

In the case of `CC(=O)c1c(C)[nH]c(-c2nc3ccc(N4CCN(C)CC4)cc3[nH]2)c1-c1ccccc1`, the GI50 was 0.52 µM in the experiment on COLO 205 colon; 3.38 µM with SK-MEL-28 melanoma; 0.0416 µM in the experiment with SNB-75 CNS; 2.07 µM with SF-295 CNS; 1.47 µM with SF-539 CNS; 4.02 µM in the experiment with SK-MEL-2 melanoma. Besides, the GI50 with U251 CNS was 3.53 µM; with MOLT-4 leukemia it was 6.47 µM; in the experiment on UACC-62 melanoma, 0.274 µM; in the experiment with A549 NSCLC, 1.45 µM. For the same compound, the TGI in the experiment with COLO 205 colon worked out at 17.3 µM; in the experiment with SK-MEL-28 melanoma it was 19.9 µM; with SNB-75 CNS, 0.937 µM; with SF-295 CNS it was 19.2 µM; in the experiment with SF-539 CNS, 17.5 µM; in the experiment on SK-MEL-2 melanoma, 22.2 µM. The TGI was 72.6 µM in the experiment with U251 CNS, > 100 µM in the experiment on MOLT-4 leukemia, 12.7 µM in the experiment with UACC-62 melanoma and 22.5 µM in the experiment on A549 NSCLC.

As for `CO[C@H]1C[C@@H]2CC[C@@H](C)[C@@](O)(O2)C(=O)C(=O)N2CCCC[C@H]2C(=O)O[C@H]([C@H](C)C[C@@H]2CC[C@@H](OCCO)[C@H](OC)C2)CC(=O)[C@H](C)C=C(C)[C@@H](O)[C@@H](OC)C(=O)[C@H](C)C[C@H](C)/C=C/C=C/C=C1C`, the GI50 with COLO 205 colon is 12.3 µM; in the experiment on SK-MEL-28 melanoma it was 11.3 µM; with SNB-75 CNS, < 0.01 µM; in the experiment on SF-295 CNS, < 0.01 µM; in the experiment with SF-539 CNS, < 0.01 µM; with U251 CNS, < 0.0108 µM. Further, the GI50 with UACC-62 melanoma was 0.342 µM; in the experiment on A549 NSCLC it was < 0.01 µM. Further, the TGI amounted to 30.1 µM with COLO 205 colon; 24.5 µM with SK-MEL-28 melanoma; 14.1 µM in the experiment with SNB-75 CNS; 17.3 µM with SF-295 CNS; 15.3 µM in the experiment on SF-539 CNS; 21.4 µM in the experiment with SK-MEL-2 melanoma. The TGI in the experiment with U251 CNS came to 18.1 µM; with MOLT-4 leukemia, 20.3 µM; in the experiment with UACC-62 melanoma, 19.9 µM; with A549 NSCLC, 22.3 µM.

Regarding `ClC(Cl)[Si]12OCCN(CCO1)CCO2`, the TGI in the experiment with COLO 205 colon, in the experiment with SK-MEL-28 melanoma, in the experiment with SNB-75 CNS, with SF-295 CNS, with SF-539 CNS and with SK-MEL-2 melanoma was > 100 µM in each case. Also, the TGI in the experiment on U251 CNS, with MOLT-4 leukemia, in the experiment on UACC-62 melanoma and in the experiment on A549 NSCLC was > 100 µM each time.

Regarding `O=C1NC(=NCCCc2ccccc2)S/C1=C\c1ccc2ncccc2c1`, the GI50 is 6.98 µM in the experiment on COLO 205 colon; 6.51 µM in the experiment on SK-MEL-28 melanoma; 2.3 µM in the experiment on SNB-75 CNS; 4.75 µM in the experiment on SF-295 CNS; 4.05 µM in the experiment with SF-539 CNS; 4.96 µM in the experiment on SK-MEL-2 melanoma. Moreover, the GI50 with U251 CNS is 2.9 µM; with MOLT-4 leukemia, 7.31 µM; in the experiment with UACC-62 melanoma, 4.65 µM; with A549 NSCLC it was 4.68 µM. In addition, the TGI with COLO 205 colon was > 20.7 µM; with SK-MEL-28 melanoma, 21.1 µM; in the experiment with SNB-75 CNS, 6.69 µM; in the experiment on SF-295 CNS, > 17.5 µM; with SF-539 CNS, 9.49 µM; in the experiment on SK-MEL-2 melanoma it was 9.67 µM. Moreover, the TGI in the experiment on U251 CNS stood at 10.3 µM; in the experiment with MOLT-4 leukemia it was 18.9 µM; with UACC-62 melanoma, 10.9 µM; with A549 NSCLC it was 13.8 µM.
